# Source: patent publication US20160296529A1, “AMINOTRIAZOLOPYRIDINE FOR USE IN THE TREATMENT OF INFLAMMATION, AND PHARMACEUTICAL COMPOSITIONS THEREOF” (priority 2012, published 2016)
# Key:
# [1] = Single dose pharmacokinetics in animals, dog; format: in vivo, Beagle dogs; settings: male, Beagle, plasma, after Formula II 15 mg/kg oral, read-out: exposure (expressed as AUC)
# Method: Pharmacokinetic studies were performed in various animal species dosed with the compound according to Formula II to determine the exposure to the compound according to Formula I as well as its apparent terminal half life (T1/2), when possible.
# Sprague-Dawley rats (male, 200-250 g), CD1 mice (male, 25-30 g), Beagle dogs (male, 9-10 kg), Göttingen minipigs (male, 10-15 kg) and New Zealand White rabbits (male, 3-5 kg) were acclimatized for at least 7 days before treatment and were kept on a 12 hr light/dark cycle (07 h00-19 h00).
# Temperature was maintained at approximately 22° C., and food and water were provided ad libitum. […]
# The compound according to Formula II was formulated in 0.5% methylcellulose and dosed orally to 3 animals (or 3 mouse/time points) as a single esophageal gavage at dose ranging from 15 to 45 mg/kg under a dosing volume of 5 or 10 mL/kg.
# Blood samples were collected over a 24-h period via the jugular vein (dog, minipig), ear blood vessel (rabbit), cardiac puncture (mouse) or retro-orbital sinus (rat) with lithium heparin as anti-coagulant. Whole blood samples were centrifuged and the resulting plasma samples were stored at −20° C. pending analysis.
# Plasma concentrations of the compound according to Formula I and of the compound according to Formula II were determined by an LC-MS/MS method with a limit of quantification ≦10.0 ng/mL for both Formula I and Formula II for all species.
# Pharmacokinetic parameters were calculated using a statistical analysis package (WinNonLin (Pharsight, Sunnyvale, Calif.: CA 94086, USA).
# rat CIA model = assay: CIA model 2 (rat collagen induced arthritis, ankle diameter); format: in vivo, Female Lewis rats
# Excerpt: Female Lewis rats (n=76) that weighed 165-194 grams (mean approx. 178 g) on arthritis day 0 were obtained from Charles River Laboratories, Inc., Wilmington, Mass., (ref#393739). Animals were identified by a distinct number at the base of the tail delineating group and animal number.
# Upon arrival, animals were housed 4/cage in shoe-box polycarbonate cages and acclimated for 8 days prior to being immunized with type II collagen. No concurrent medications were given.
# During the acclimation and study periods, animals were housed in a laboratory environment with temperatures ranging 19-25° […]. and relative humidity of 30%-70%. Automatic timers provided 12 h of light and 12 h of dark. Animals were allowed access ad libitum to food and water.
# Acclimated female Lewis rats were anesthetized with Isoflurane and receive subcutaneous/intradermal (SC/ID) injections with 300 μL of Freund's Incomplete Adjuvant (Difco, Detroit, Mich.) containing 2 mg/mL bovine type II collagen (Elastin Products, Owensville, Mo.) at the base of the tail and 2 sites on the back on day −9 and on day −3.
# Collagen was prepared by making a 4 mg/mL solution in 0.01N Acetic acid. Equal volumes of collagen and Freund's incomplete adjuvant, were emulsified by hand mixing until a bead of this material holds its form when placed in water. Each animal received 300 μL of the mixture on each occasion divided over 3 subcutaneous sites on back.
# On study day 1, onset of arthritis occurred and animals were randomized into treatment groups. After randomization, all cages were labelled with protocol number, group number, and animal numbers. Randomization into each group was done after ankle joint swelling was obviously established and there was good evidence of bilateral disease.
# Animals with established type II collagen arthritis were treated daily (QD) by the oral (PO) route for 13 days with vehicle (methylcellulose 0.5% (w/v)), or with active compound(s) prepared in methylcellulose, 0.5% (w/v). Oral dosing was initiated on arthritis day 1 and continued daily (QD at 24 h intervals) through day 13. Animals were terminated on arthritis day 14.
# The severity of the arthritis was evaluated by measuring the diameter of both ankles on the animals. Caliper measurements of ankles were taken every day beginning on day 0, with a Digitrix II micrometer (Fowler & NSK). Baseline measurements were taken using one ankle with values rounded to one-thousandth of an inch. Measurements were confirmed as clinically normal (0.260-0.264 in) by comparison with historical values for rats based on a range of body weights. Baseline measurements were then applied to both ankles, and these values remain with the animal so long as the ankle was clinically normal with good definition of all the ankle bones and no evidence of inflammation. Animals were terminated on day 14.
structure (smiles),measurement,setting,value
"O=C(Nc1nc2cccc(-c3ccc(CN4CCS(=O)(=O)CC4)cc3)n2n1)C1CC1 [Formula II, Cyclopropanecarboxylic acid {5-[4-(1,1-dioxo-thiomorpholin-4-ylmethyl)-phenyl]-[1,2,4]triazolo[1,5-a]pyridin-2-yl}-amide]",AUC,[1],44900 ng·h/mL
same,ankle diameter,"rat CIA model; group C: Formula II 1 mg/kg PO QD, day 0",0.2625 inches
same,ankle diameter,"rat CIA model; group C: Formula II 1 mg/kg PO QD, day 1",0.2716 inches
same,ankle diameter,"rat CIA model; group C: Formula II 1 mg/kg PO QD, day 2",0.2755 inches
same,ankle diameter,"rat CIA model; group C: Formula II 1 mg/kg PO QD, day 3",0.2869 inches
same,ankle diameter,"rat CIA model; group C: Formula II 1 mg/kg PO QD, day 4",0.2990 inches
same,ankle diameter,"rat CIA model; group C: Formula II 1 mg/kg PO QD, day 5",0.3106 inches
same,ankle diameter,"rat CIA model; group C: Formula II 1 mg/kg PO QD, day 6",0.3231 inches
same,ankle diameter,"rat CIA model; group C: Formula II 1 mg/kg PO QD, day 7",0.3296 inches
same,ankle diameter,"rat CIA model; group C: Formula II 1 mg/kg PO QD, day 8",0.3291 inches
same,ankle diameter,"rat CIA model; group C: Formula II 1 mg/kg PO QD, day 9",0.3268 inches
same,ankle diameter,"rat CIA model; group C: Formula II 1 mg/kg PO QD, day 10",0.3270 inches
same,ankle diameter,"rat CIA model; group C: Formula II 1 mg/kg PO QD, day 11",0.3185 inches
same,ankle diameter,"rat CIA model; group C: Formula II 1 mg/kg PO QD, day 12",0.3178 inches
same,ankle diameter,"rat CIA model; group C: Formula II 1 mg/kg PO QD, day 13",0.3185 inches
same,ankle diameter,"rat CIA model; group C: Formula II 1 mg/kg PO QD, day 14",0.3226 inches
same,ankle diameter,"rat CIA model; group D: Formula II 3 mg/kg PO QD, day 0",0.2623 inches
same,ankle diameter,"rat CIA model; group D: Formula II 3 mg/kg PO QD, day 1",0.2718 inches
same,ankle diameter,"rat CIA model; group D: Formula II 3 mg/kg PO QD, day 2",0.2755 inches
same,ankle diameter,"rat CIA model; group D: Formula II 3 mg/kg PO QD, day 3",0.2869 inches
same,ankle diameter,"rat CIA model; group D: Formula II 3 mg/kg PO QD, day 4",0.2957 inches
same,ankle diameter,"rat CIA model; group D: Formula II 3 mg/kg PO QD, day 5",0.3058 inches
same,ankle diameter,"rat CIA model; group D: Formula II 3 mg/kg PO QD, day 6",0.3168 inches
same,ankle diameter,"rat CIA model; group D: Formula II 3 mg/kg PO QD, day 7",0.3205 inches
same,ankle diameter,"rat CIA model; group D: Formula II 3 mg/kg PO QD, day 8",0.3259 inches
same,ankle diameter,"rat CIA model; group D: Formula II 3 mg/kg PO QD, day 9",0.3216 inches
same,ankle diameter,"rat CIA model; group D: Formula II 3 mg/kg PO QD, day 10",0.3197 inches
same,ankle diameter,"rat CIA model; group D: Formula II 3 mg/kg PO QD, day 11",0.3156 inches
same,ankle diameter,"rat CIA model; group D: Formula II 3 mg/kg PO QD, day 12",0.3165 inches
same,ankle diameter,"rat CIA model; group D: Formula II 3 mg/kg PO QD, day 13",0.3175 inches
same,ankle diameter,"rat CIA model; group D: Formula II 3 mg/kg PO QD, day 14",0.3174 inches
same,significance to vehicle control (ANOVA) in the CIA second model,rat CIA model; group E: Formula II 10 mg/kg PO QD,mg/kg (*) (((*) = p ≦ 0.05 ANOVA to vehicle control))
same,ankle diameter,"rat CIA model; group E: Formula II 10 mg/kg PO QD, day 0",0.2626 inches
same,ankle diameter,"rat CIA model; group E: Formula II 10 mg/kg PO QD, day 1",0.2718 inches
same,ankle diameter,"rat CIA model; group E: Formula II 10 mg/kg PO QD, day 2",0.2744 inches
same,ankle diameter,"rat CIA model; group E: Formula II 10 mg/kg PO QD, day 3",0.2808 inches
same,ankle diameter,"rat CIA model; group E: Formula II 10 mg/kg PO QD, day 4",0.2850 inches
same,ankle diameter,"rat CIA model; group E: Formula II 10 mg/kg PO QD, day 5",0.2921 inches
same,ankle diameter,"rat CIA model; group E: Formula II 10 mg/kg PO QD, day 6",0.3000 inches
same,ankle diameter,"rat CIA model; group E: Formula II 10 mg/kg PO QD, day 7",0.3031 inches
same,ankle diameter,"rat CIA model; group E: Formula II 10 mg/kg PO QD, day 8",0.3108 inches
same,ankle diameter,"rat CIA model; group E: Formula II 10 mg/kg PO QD, day 9",0.3119 inches
same,ankle diameter,"rat CIA model; group E: Formula II 10 mg/kg PO QD, day 10",0.3122 inches
same,ankle diameter,"rat CIA model; group E: Formula II 10 mg/kg PO QD, day 11",0.3090 inches
same,ankle diameter,"rat CIA model; group E: Formula II 10 mg/kg PO QD, day 12",0.3070 inches
same,ankle diameter,"rat CIA model; group E: Formula II 10 mg/kg PO QD, day 13",0.3069 inches
same,ankle diameter,"rat CIA model; group E: Formula II 10 mg/kg PO QD, day 14",0.3066 inches
same,significance to vehicle control (ANOVA) in the CIA second model,rat CIA model; group F: Formula II 30 mg/kg PO QD,mg/kg (*) (((*) = p ≦ 0.05 ANOVA to vehicle control))
same,ankle diameter,"rat CIA model; group F: Formula II 30 mg/kg PO QD, day 0",0.2620 inches
same,ankle diameter,"rat CIA model; group F: Formula II 30 mg/kg PO QD, day 1",0.2718 inches
same,ankle diameter,"rat CIA model; group F: Formula II 30 mg/kg PO QD, day 2",0.2679 inches
same,ankle diameter,"rat CIA model; group F: Formula II 30 mg/kg PO QD, day 3",0.2683 inches
same,ankle diameter,"rat CIA model; group F: Formula II 30 mg/kg PO QD, day 4",0.2708 inches
same,ankle diameter,"rat CIA model; group F: Formula II 30 mg/kg PO QD, day 5",0.2698 inches
same,ankle diameter,"rat CIA model; group F: Formula II 30 mg/kg PO QD, day 6",0.2696 inches
same,ankle diameter,"rat CIA model; group F: Formula II 30 mg/kg PO QD, day 7",0.2706 inches
same,ankle diameter,"rat CIA model; group F: Formula II 30 mg/kg PO QD, day 8",0.2741 inches
same,ankle diameter,"rat CIA model; group F: Formula II 30 mg/kg PO QD, day 9",0.2721 inches
same,ankle diameter,"rat CIA model; group F: Formula II 30 mg/kg PO QD, day 10",0.2706 inches
same,ankle diameter,"rat CIA model; group F: Formula II 30 mg/kg PO QD, day 11",0.2711 inches
same,ankle diameter,"rat CIA model; group F: Formula II 30 mg/kg PO QD, day 12",0.2685 inches
same,ankle diameter,"rat CIA model; group F: Formula II 30 mg/kg PO QD, day 13",0.2684 inches
same,ankle diameter,"rat CIA model; group F: Formula II 30 mg/kg PO QD, day 14",0.2679 inches
